inhibition, activity and IC50 data for seven molecules are collected here from patent US12459938B2, “ORAI channel inhibitors” (Beth Israel Deaconess Medical Center, Inc., priority 2019, dated 2025).

A value given as a limit tells only on which side of the number the result lay.

Common to all, as to format: cell-based
The test system of assay [1] is NFAT. Put plainly: NFAT activation assay (luciferase reporter, PMA and ionomycin). Particulars: Homo sapiens; 10 μM compound; Jurkat cells; 15 nM PMA and 0.5 μM ionomycin; 18 hours; read-out: Activity 10 μM (% inhibition of NFAT luciferase luminescence). The method, then:
Jurkat cells (BPS Bioscience catalog No. 60621) were seeded at 40,000 cells per well into white clear-bottom 96-well microplate in 80 μl of growth medium without Geneticin. 10 μl of testing compounds (final 10 μM) were added to each well and preincubated with cells for half an hour. Then 10 μl of PMA and ionomycin mixture were added to each well to make the final concentration of 15 nM PMA and 0.5 μM ionomycin. Cells were incubated at 37° C. and 5% CO2 incubator for 18 hours. After treatment, cells were lysed and the luciferase assay was performed using ONE-Step luciferase assay system by adding 100 μl of One-Step Luciferase reagent (BPS Bioscience catalog No. 60690) per well followed by rocking at room temperature for about 30 minutes. Luminescence was measured using a luminometer (BioTek Synergym™ 2 microplate reader). The percent luminescence in the presence of each compound was calculated according to the following equation: % Luminescence=(L−Lb)/(Lt−Lb), where L=the luminescence intensity in the presence of the compound, Lb=the luminescence intensity in the absence of cells, and Lt=the luminescence intensity in the absence of the compound. The percent inhibition was calculated by: % inhibition=100−(% Luminescence).

Assay [2] has as its system TNF-α. As to the kind of experiment: TNF-α release from rat mast cells (ELISA). To be noted: Mast cell, RBL rat mast cells, control = DMSO; for activity at 1 µM: 1 μM compound; for activity at 10 µM: 10 μM compound. The method, then:
(§1) [Ca^2+]ER in RBL (ATCC) rat mast cells were depleted by Tg in the presence of a test compound. Then […] DMEM-2% FBS (containing 5 mM Ca^2+) was supplemented back in the presence of the corresponding concentration of MCS-01.
(§2) Thirty minutes after replenishing Ca^2+ the culture supernatant was collected for MC degranulation and cytokine release. Degranulation was measured as percent secreted β-hexosaminidase (β-Hex) according to the protocol of the assay kit (Sigma-Aldrich, MO, USA). At this time point TNF-α was also measured using ELISA kit (R&D Systems, MN, USA).
The inhibitory activity of the tested compound in the TNF-α assay was presented as % of control (DMSO).
In general terms: ELISA stands for enzyme-linked immunosorbent assay.

The subject of assay [3] is Rat mast cells (RBL-2H3 cells). As to the kind of experiment: Calcium influx assay (Fluo-4NW, thapsigargin store depletion, Ca2+ re-addition). To be noted: control = DMSO, read-out: Fluo-4NW fluorescence (Ca2+ influx), % of control; for activity at 1 µM: 1 μM compound; for activity at 10 µM: 10 μM compound. The protocol: Rat mast cells (RBL-2H3 cells) (ATCC) were seeded in 96-well plate at 4×10^4 cells per well in DMEM-supplemented with 2% FBS and allowed to adhere overnight. Culture medium was then replaced with 50 μl of Ca^2+-free Tyrode buffer to load Ca^2+-probe Fluo-4NW (Molecular Probe, Thermo Fisher, MA, USA) per manufacturer instruction. A testing compound at indicated concentrations was supplied during the probe loading from the beginning. Cells were incubated in the presence or absence of a testing compound for 60 minutes in the Ca^2+-free medium at 37° C. During the last 5 minutes of incubation, cells were treated with 1 μM thapsigargin (Tg, Sigma Aldrich) to deplete [Ca^2+]ER, 20 mM CaCl2 in normal saline solution was supplemented back to the [Ca^2+]ER-depleted cells to have 2 mM as final concentration. Culture medium was removed 1 minute after Ca^2+ reloading, and changes in Fluo-4NW fluorescence (RFU) were recorded with the multi-mode plate reader (FilterMax F5, Molecular Devices/Thermo Fisher Scientific, MA, USA) at an excitation wavelength of 485 nm and an emission wavelength of 535 nm. The inhibitory activity of the tested compound was presented as % of control (DMSO).

For assay [4], the system named is IL-2. Put plainly: Interleukine-2 (IL-2) assay (ELISA, PMA and TG stimulated). To be noted: Human Jurkat T cells; PMA (10 nM) and TG (100 nM); 8 hours; read-out: IC50 (IL-2 levels). The method, then:
Human Jurkat T cells (ATCC) were plated in Dubelcco's Modified Eagle Medium (DMEM) with 1% FBS in a 96 well plate at a density of 1×10^6 cells/well. Cells were treated with a testing compound at different concentrations and stimulated by PMA (10 nM) and TG (100 nM). The treated cells were incubated at 8 hours. The supernatants were collected and assayed for IL-2 levels by ELISA according to the manufacturer's protocols. The IC50 of Example 2 was determined to be 3 μM.

Assay [5] concerns RBL rat mast cells. Put plainly: Degranulation of rat mast cells (secreted β-hexosaminidase). Particulars: Mast cell, 0.5 h, Tg depletion, 30 minutes after replenishing Ca2+. The protocol: as §1, §2

On to `O=C(Nc1ccncc1F)c1cn(CC2CCC2)c2ccccc12` [Example 8, 1-(cyclobutylmethyl)-N-(3-fluoropyridin-4-yl)-1H-indole-3-carboxamide], for which the inhibition at 10 µM in assay [1] is over 75%. In addition, in assay [2], the activity at 1 µM worked out at 79% and the activity at 10 µM is 51%. Further, in assay [3], the activity at 1 µM was 50% and the activity at 10 µM amounted to 25%.

As to `Cc1cnccc1NC(=O)c1cn(CC2CCC2)c2ccccc12` [Example 9, 1-(cyclobutylmethyl)-N-(3-methylpyridin-4-yl)-1H-indole-3-carboxamide], in assay [1], the inhibition at 10 µM is over 75%. In addition, in assay [3], the activity at 1 µM amounted to 81% and the activity at 10 µM was found to be 65%.

`O=C(Nc1ccncc1F)c1cn(CC2CC2)c2ccccc12` [Example 13, 1-(cyclopropylmethyl)-N-(3-fluoropyridin-4-yl)-11/-indole-3-carboxamide]: the inhibition at 10 µM in assay [1] was over 75%. In assay [2], this molecule displayed an activity at 1 µM of 67% and an activity at 10 µM of 53%. In assay [3], the activity at 1 µM amounted to 63% and the activity at 10 µM amounted to 31%.

`O=C(Nc1c(F)cccc1Cl)c1cn(CC2CC2)c2ccccc12` [Example 2, N-(2-chloro-6-fluorophenyl)-1-(cyclopropylmethyl)-1H-indole-3-carboxamide]: the concentration for half-maximal inhibition (IC50) is 3 µM in assay [4] and 1.2 µM in assay [5]. Besides, the activity at 1 µM in assay [2] is 57%; in assay [3], 46%. In addition, the activity at 10 µM in assay [2] was 30%; in assay [3] it was 14%.

With `Cc1cnccc1NC(=O)c1cn(CC2CC2)c2ccccc12` [Example 4, 1-(cyclopropylmethyl)-N-(3-methylpyridin-4-yl)-1H-indole-3-carboxamide], the inhibition at 10 µM in assay [1] is 51 to 75%. In assay [3], the activity at 1 µM worked out at 61% and the activity at 10 µM came out at 44%.

`O=C(Nc1c(F)cncc1F)c1cn(CC2CCC2)c2ccccc12` [Example 7, 1-(cyclobutylmethyl)-N-(3,5-difluoropyridin-4-yl)-1H-indole-3-carboxamide]: in assay [1], the inhibition at 10 µM fell in the range of 51 to 75%. In assay [3], the activity at 1 µM was 85% and the activity at 10 µM was 80%.

On to `O=C(Nc1c(F)cccc1F)c1cn(CC2CC2)c2ccccc12` [Example 1, 1-(cyclopropylmethyl)-N-(2,6-difluorophenyl)-1H-indole-3-carboxamide], for which the inhibition at 10 µM in assay [1] fell in the range of 51 to 75%. In assay [3], the activity at 1 µM was 75% and the activity at 10 µM was found to be 42%.

By inhibition is commonly meant the relative decrease from the control value, in per cent. The IC50 is the concentration that inhibits the measured activity by half.
